Measured values from patent US12247045B2, “MAP4K4 inhibitors” (Imperial College Innovations Limited, priority 2018, dated 2025).
Like-named read-outs stand apart in the source and are kept apart here.

Columns and labels:
Type in all cases: biochemical
[1] = target: T1, human MAP4K4 kinase domain (Homo sapiens, UniProt O95819); assay: MAP4K4 kinase activity, CisBio HTRF Transcreener ADP assay
T1 construct: 0.5 nM human MAP4K4 kinase domain (Invitrogen); purchased Invitrogen
Text: Compounds of the present invention were screened for their inhibitory activity against MAP4K4, versus selected off-target hits found with early members of this chemical series. MAP4K4 kinase activity was monitored using the CisBio HTRF Transcreener ADP assay, a competitive immunoassay with a reproducible Z′>0.6. In the detection step, endogenous ADP and d2-labeled ADP compete for binding an anti-ADP monoclonal antibody labelled with Eu^3+ cryptate. A ratiometric fluorescent read-out is used at 665 and 620 nm. Reactions were performed in the presence of 1% DMSO with ATP added at Km (10 μM), 0.5 nM human MAP4K4 kinase domain (Invitrogen), 1 μM biotin-myelin basic protein as substrate (Invitrogen), and extension of reaction time to 2 h. Assays were run in Greiner low volume plates with a final reaction volume of 10 μl. The MAP4K4 inhibition data are provided in Table 41 below for selected compounds of the present invention. The data has been categorised based on the IC50 value of the compound as “A”, “B” or “C”. IC50: A≤100 nM; 100 nM<B≤1 μM; 1 μM<C; nd=not determined.

TNIK/MAP4K7 = TNIK/MAP4K7 (Homo sapiens, UniProt Q9UKE5); assay: Kinase selectivity panel, TNIK/MAP4K7; settings: read-out: pIC50 TNIK/MAP4K7 (converted)
Text: (§1) The data in Table 42 also provides the fold selectivity of the two compounds in favour of MAP4K4 over the tested kinase. The fold selectivity is indicated in parenthesis.

GCK/MAP4K2 = target: T2, GCK/MAP4K2 (Homo sapiens, UniProt Q12851); assay: Kinase selectivity panel, GCK/MAP4K2; settings: for fold selectivity MAP4K4 over GCK/MAP4K2: in favour of MAP4K4; for IC50: read-out: pIC50 GCK/MAP4K2 (converted)
T2 sequence (Q12851 1-820): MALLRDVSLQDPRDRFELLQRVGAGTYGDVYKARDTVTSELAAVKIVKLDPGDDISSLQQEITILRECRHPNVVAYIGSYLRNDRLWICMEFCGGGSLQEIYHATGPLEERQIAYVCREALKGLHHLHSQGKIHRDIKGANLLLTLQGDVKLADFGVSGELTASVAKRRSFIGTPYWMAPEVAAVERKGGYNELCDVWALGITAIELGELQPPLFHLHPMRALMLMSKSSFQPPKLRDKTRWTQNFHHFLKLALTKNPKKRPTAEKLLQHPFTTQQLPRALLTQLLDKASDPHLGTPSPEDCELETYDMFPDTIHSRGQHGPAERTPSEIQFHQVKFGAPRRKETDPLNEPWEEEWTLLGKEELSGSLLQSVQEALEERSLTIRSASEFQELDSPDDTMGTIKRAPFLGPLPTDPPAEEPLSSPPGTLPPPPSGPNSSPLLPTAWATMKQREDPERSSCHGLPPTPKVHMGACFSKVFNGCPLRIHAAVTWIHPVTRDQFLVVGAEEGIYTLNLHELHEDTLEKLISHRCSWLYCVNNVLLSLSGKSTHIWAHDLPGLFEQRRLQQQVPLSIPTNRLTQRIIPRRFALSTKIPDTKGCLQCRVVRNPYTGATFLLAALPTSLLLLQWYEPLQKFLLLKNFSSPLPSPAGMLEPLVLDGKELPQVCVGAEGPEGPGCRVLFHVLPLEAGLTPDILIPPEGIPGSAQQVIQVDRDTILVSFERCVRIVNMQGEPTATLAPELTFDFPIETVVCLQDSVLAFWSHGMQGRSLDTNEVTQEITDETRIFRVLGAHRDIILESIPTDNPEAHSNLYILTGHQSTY
Text: as §1

GLK/MAP4K3 = target: T3, GLK/MAP4K3 (Homo sapiens, UniProt Q8IVH8); assay: Kinase selectivity panel, GLK/MAP4K3; settings: for fold selectivity MAP4K4 over GLK/MAP4K3: in favour of MAP4K4; for IC50: read-out: pIC50 GLK/MAP4K3 (converted)
T3 sequence (Q8IVH8 1-894): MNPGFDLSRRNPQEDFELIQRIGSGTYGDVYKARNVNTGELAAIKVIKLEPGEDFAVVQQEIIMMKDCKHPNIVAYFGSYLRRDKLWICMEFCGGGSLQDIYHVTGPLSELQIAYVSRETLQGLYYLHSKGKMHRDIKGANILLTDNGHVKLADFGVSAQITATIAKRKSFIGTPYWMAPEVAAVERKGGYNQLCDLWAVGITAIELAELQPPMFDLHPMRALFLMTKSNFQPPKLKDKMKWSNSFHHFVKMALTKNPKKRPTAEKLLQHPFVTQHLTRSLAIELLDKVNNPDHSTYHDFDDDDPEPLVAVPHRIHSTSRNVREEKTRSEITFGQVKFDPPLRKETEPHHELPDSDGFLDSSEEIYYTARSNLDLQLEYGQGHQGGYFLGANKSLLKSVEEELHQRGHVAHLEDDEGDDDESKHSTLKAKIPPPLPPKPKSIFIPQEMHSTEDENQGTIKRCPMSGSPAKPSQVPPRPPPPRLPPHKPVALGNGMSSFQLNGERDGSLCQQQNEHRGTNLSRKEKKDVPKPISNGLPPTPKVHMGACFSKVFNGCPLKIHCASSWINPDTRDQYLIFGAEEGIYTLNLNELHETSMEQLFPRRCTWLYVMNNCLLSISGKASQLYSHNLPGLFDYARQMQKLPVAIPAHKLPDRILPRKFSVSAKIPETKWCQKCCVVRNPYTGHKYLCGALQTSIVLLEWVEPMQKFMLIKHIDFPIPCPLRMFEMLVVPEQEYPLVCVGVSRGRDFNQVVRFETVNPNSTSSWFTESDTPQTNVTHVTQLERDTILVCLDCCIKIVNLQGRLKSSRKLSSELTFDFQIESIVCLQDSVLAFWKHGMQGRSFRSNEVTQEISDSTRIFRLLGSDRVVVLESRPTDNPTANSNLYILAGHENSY
Text: as §1

KHS/MAP4K5 = KHS/MAP4K5 (Homo sapiens, UniProt Q9Y4K4); assay: Kinase selectivity panel, KHS/MAP4K5; settings: for fold selectivity MAP4K4 over KHS/MAP4K5: in favour of MAP4K4; for IC50: read-out: pIC50 KHS/MAP4K5 (converted)
Text: as §1

ABL1 = ABL1 (Homo sapiens, UniProt P00519); assay: Kinase selectivity panel, ABL1; settings: for fold selectivity MAP4K4 over ABL1: in favour of MAP4K4; for IC50: read-out: pIC50 ABL1 (converted)
Text: as §1

MLK3/MAP3K11 = MLK3/MAP3K11 (Homo sapiens, UniProt Q16584); assay: Kinase selectivity panel, MLK3/MAP3K11; settings: for fold selectivity MAP4K4 over MLK3/MAP3K11: in favour of MAP4K4; for IC50: read-out: pIC50 MLK3/MAP3K11 (converted)
Text: as §1

NUAK1 = target: T4, NUAK1 (Homo sapiens, UniProt O60285); assay: Kinase selectivity panel, NUAK1; settings: for fold selectivity MAP4K4 over NUAK1: in favour of MAP4K4; for IC50: read-out: pIC50 NUAK1 (converted)
T4 sequence (O60285 1-661): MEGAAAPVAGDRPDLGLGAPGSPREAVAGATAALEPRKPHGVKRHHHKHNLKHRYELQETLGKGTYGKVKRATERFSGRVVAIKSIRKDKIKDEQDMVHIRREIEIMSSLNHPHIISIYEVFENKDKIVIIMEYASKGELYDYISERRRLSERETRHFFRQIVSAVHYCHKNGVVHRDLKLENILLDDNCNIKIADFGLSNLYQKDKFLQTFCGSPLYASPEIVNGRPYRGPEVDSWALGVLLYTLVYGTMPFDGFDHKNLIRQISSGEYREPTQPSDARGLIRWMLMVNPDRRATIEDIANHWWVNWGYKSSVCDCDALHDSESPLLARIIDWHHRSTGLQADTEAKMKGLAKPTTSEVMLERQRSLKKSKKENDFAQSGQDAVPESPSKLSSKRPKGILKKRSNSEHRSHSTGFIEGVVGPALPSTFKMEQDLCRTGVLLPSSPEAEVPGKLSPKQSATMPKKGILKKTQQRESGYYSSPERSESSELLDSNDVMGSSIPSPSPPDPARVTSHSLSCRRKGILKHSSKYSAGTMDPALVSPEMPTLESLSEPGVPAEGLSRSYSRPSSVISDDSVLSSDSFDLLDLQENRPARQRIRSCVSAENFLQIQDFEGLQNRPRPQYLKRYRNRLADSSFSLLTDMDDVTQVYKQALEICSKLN
Text: as §1

MINK1/MAP4K6 = MINK1/MAP4K6 (Homo sapiens, UniProt Q8N4C8); assay: Kinase selectivity panel, MINK1/MAP4K6; settings: read-out: pIC50 MINK1/MAP4K6 (converted)
Text: as §1

MLK1/MAP3K9 = MLK1/MAP3K9 (Homo sapiens, UniProt P80192); assay: Kinase selectivity panel, MLK1/MAP3K9; settings: for fold selectivity MAP4K4 over MLK1/MAP3K9: in favour of MAP4K4; for IC50: read-out: pIC50 MLK1/MAP3K9 (converted)
Text: as §1

Aurora B = Aurora B (Homo sapiens, UniProt Q96GD4); assay: Kinase selectivity panel, Aurora B
Text: as §1

[2] = IC50 category, ATP at Km (10 μM), 0.5 nM kinase domain, 2 h, read-out: MAP4K4
[3] = read-out: pIC50 MAP4K4 (converted)

Sequence of MLK1/MAP3K9 (P80192 whole entry): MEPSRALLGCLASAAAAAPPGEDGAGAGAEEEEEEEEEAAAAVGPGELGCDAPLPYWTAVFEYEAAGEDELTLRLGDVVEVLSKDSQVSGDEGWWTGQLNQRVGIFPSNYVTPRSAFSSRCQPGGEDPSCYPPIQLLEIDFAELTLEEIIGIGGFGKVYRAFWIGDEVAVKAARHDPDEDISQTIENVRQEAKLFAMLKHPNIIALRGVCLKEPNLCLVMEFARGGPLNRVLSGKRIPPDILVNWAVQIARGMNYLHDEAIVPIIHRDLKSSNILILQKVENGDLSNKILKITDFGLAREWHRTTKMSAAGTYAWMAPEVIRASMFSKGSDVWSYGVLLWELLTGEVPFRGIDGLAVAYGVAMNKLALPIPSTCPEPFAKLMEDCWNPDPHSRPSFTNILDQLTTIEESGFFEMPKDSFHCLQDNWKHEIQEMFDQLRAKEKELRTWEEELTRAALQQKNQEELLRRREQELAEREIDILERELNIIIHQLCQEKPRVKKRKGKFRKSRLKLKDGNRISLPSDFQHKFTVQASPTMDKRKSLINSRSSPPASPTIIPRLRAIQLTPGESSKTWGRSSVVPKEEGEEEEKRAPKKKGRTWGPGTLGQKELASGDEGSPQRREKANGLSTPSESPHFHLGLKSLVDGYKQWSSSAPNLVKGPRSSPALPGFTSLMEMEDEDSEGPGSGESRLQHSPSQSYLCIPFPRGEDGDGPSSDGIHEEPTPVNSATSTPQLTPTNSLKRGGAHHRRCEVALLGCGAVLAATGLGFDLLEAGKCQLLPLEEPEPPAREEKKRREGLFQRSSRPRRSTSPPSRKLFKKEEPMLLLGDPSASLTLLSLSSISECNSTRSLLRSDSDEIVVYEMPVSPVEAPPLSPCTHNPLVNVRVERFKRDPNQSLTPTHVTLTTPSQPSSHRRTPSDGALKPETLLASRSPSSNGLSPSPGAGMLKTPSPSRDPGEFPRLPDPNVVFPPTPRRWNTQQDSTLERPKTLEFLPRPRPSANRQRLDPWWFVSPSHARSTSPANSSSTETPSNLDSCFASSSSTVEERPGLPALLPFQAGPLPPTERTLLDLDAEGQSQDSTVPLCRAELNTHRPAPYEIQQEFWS
Sequence of MINK1/MAP4K6 (Q8N4C8 whole entry): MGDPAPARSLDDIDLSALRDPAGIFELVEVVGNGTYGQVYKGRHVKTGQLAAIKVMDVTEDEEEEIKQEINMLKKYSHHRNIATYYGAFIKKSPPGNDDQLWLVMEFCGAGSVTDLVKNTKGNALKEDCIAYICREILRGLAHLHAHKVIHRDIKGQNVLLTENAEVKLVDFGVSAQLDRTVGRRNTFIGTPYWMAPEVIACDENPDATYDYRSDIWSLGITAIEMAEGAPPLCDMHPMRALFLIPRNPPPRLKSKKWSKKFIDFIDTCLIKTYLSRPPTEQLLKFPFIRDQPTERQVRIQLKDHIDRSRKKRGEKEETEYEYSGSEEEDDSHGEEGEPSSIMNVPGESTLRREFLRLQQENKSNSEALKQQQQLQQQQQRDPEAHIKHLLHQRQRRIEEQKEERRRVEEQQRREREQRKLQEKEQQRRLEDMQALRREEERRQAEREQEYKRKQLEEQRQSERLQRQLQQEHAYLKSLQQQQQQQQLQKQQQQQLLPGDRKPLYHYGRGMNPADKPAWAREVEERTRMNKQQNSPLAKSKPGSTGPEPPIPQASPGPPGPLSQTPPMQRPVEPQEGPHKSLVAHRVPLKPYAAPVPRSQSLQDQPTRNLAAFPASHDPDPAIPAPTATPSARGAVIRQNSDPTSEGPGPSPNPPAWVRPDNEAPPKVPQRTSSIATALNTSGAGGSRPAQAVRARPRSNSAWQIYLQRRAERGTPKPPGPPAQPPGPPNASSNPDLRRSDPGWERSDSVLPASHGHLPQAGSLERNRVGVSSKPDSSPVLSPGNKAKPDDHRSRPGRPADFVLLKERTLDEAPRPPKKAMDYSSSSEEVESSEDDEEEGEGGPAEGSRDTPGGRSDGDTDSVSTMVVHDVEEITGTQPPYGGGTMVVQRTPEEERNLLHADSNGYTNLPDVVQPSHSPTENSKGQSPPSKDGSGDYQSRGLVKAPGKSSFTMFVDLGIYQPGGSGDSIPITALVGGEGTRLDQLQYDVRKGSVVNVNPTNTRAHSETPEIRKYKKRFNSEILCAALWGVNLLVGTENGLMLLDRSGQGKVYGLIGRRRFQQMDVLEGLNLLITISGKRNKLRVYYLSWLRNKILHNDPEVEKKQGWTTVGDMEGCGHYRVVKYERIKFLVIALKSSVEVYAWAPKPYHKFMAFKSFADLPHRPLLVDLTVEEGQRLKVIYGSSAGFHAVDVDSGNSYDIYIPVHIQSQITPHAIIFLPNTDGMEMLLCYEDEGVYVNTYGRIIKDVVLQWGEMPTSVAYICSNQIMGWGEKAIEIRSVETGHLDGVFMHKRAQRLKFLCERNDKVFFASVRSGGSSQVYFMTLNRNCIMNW
Sequence of MLK3/MAP3K11 (Q16584 whole entry): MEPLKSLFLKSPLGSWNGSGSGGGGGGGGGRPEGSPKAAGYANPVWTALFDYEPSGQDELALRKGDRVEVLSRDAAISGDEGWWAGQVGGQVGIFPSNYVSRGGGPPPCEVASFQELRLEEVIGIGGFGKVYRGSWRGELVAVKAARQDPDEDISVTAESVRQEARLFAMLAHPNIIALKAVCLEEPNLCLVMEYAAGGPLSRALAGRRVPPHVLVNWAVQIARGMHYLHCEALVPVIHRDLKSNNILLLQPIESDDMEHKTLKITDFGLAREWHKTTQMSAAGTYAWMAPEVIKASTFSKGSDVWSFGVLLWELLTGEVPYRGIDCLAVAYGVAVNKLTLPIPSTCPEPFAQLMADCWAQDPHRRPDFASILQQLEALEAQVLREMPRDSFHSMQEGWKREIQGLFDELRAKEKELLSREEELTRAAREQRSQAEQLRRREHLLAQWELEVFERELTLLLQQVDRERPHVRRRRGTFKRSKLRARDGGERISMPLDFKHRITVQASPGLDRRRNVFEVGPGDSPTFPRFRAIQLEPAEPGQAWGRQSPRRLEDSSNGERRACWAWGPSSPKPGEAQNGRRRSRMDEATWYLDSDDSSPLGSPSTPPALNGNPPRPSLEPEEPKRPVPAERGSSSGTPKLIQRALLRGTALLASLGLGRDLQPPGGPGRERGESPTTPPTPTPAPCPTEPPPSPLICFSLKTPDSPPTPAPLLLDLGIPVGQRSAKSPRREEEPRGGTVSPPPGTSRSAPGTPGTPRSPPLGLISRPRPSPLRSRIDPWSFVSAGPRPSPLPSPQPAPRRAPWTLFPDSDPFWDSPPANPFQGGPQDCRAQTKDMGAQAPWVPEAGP
Sequence of TNIK/MAP4K7 (Q9UKE5 whole entry): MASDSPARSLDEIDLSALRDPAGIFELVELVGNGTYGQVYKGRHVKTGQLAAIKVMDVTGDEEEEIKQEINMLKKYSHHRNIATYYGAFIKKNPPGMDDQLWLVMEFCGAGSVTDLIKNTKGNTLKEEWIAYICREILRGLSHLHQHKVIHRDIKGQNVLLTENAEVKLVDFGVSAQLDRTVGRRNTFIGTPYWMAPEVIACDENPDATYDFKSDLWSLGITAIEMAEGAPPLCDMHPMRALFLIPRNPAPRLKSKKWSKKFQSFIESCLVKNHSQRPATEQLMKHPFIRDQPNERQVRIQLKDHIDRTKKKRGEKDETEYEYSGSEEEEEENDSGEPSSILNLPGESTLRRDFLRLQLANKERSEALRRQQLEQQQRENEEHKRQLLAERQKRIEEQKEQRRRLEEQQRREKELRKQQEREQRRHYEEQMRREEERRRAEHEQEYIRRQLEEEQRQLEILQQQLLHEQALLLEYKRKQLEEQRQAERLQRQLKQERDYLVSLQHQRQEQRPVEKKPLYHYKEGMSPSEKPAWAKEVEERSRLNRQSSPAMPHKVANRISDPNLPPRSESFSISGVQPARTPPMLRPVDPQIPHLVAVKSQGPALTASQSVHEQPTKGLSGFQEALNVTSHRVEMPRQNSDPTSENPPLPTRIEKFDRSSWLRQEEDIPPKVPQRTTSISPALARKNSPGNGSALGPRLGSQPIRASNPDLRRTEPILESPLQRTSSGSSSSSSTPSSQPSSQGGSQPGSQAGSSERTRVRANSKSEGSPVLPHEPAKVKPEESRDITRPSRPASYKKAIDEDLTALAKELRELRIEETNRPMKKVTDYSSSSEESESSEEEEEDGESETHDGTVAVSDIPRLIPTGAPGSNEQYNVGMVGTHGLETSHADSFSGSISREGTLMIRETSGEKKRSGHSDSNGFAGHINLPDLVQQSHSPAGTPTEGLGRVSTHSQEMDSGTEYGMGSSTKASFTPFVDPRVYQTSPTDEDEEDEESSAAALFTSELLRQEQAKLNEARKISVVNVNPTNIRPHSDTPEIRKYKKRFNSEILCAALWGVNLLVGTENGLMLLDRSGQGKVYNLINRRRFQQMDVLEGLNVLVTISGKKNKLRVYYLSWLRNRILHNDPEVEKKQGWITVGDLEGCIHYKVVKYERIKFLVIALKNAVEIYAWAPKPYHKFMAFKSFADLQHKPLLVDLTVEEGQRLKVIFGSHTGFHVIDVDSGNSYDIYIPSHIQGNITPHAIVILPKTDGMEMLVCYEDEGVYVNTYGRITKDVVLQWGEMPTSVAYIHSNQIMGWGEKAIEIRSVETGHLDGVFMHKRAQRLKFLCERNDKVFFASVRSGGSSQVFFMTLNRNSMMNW
T1 sequence (O95819 25-289 limits assumed): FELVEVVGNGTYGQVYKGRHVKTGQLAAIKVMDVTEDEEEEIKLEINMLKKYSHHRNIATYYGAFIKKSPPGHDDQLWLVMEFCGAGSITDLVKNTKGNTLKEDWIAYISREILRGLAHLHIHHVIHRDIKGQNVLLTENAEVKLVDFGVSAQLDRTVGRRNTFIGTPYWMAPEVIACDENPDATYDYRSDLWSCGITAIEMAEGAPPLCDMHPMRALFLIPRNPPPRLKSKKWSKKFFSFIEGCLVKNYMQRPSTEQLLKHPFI

Row | SMILES | IC50 [1, 2] | IC50 [1, 3] | IC50 (TNIK/MAP4K7) | fold selectivity MAP4K4 over GCK/MAP4K2 (GCK/MAP4K2) | IC50 (GCK/MAP4K2) | fold selectivity MAP4K4 over GLK/MAP4K3 (GLK/MAP4K3) | IC50 (GLK/MAP4K3) | fold selectivity MAP4K4 over KHS/MAP4K5 (KHS/MAP4K5) | IC50 (KHS/MAP4K5) | fold selectivity MAP4K4 over ABL1 (ABL1) | IC50 (ABL1) | fold selectivity MAP4K4 over MLK3/MAP3K11 (MLK3/MAP3K11) | IC50 (MLK3/MAP3K11) | fold selectivity MAP4K4 over NUAK1 (NUAK1) | IC50 (NUAK1) | IC50 (MINK1/MAP4K6) | fold selectivity MAP4K4 over MLK1/MAP3K9 (MLK1/MAP3K9) | IC50 (MLK1/MAP3K9) | fold selectivity MAP4K4 over Aurora B (Aurora B; in favour of MAP4K4) | IC50 (Aurora B; read-out: pIC50 Aurora B (converted))
1 | COCCOc1ccc(-c2cn(-c3cccnc3)c3nc[nH]c(=O)c23)cc1 [Ex-67] | ≤ 0.1 µM | 0.0251 µM | 0.2 µM | (79) fold | 2 µM | (1000) fold | 25.1 µM | (63) fold | 1.58 µM | (>1000) fold | 31.6 µM | (63) fold | 1.58 µM | (50) fold | 1.26 µM | – | – | – | – | –
2 | COCCOc1ccc(-c2cn(-c3ccncc3)c3nc[nH]c(=O)c23)cc1 [Ex-28] | ≤ 0.1 µM | 0.0126 µM | 0.0501 µM | (79) fold | 1 µM | – | – | (63) fold | 0.794 µM | (501) fold | 6.31 µM | (79) fold | 1 µM | (251) fold | 3.16 µM | 0.0316 µM | (398) fold | 5.01 µM | (501) fold | 6.31 µM
3 | O=c1[nH]cnc2c1c(-c1ccc(OCC(O)CN3CCOCC3)cc1)cn2-c1cccnc1 (stereo not drawn) [Ex-54] | ≤ 0.1 µM | 0.0316 µM | 0.0501 µM | (5) fold | 0.158 µM | (50) fold | 1.58 µM | (6) fold | 0.2 µM | (126) fold | 3.98 µM | (13) fold | 0.398 µM | (4) fold | 0.126 µM | 0.0316 µM | (100) fold | 3.16 µM | – | –

The next lines start with the values.

Row | IC50 [1, 2] | IC50 [1, 3] | IC50 (TNIK/MAP4K7) | fold selectivity MAP4K4 over GCK/MAP4K2 (GCK/MAP4K2) | IC50 (GCK/MAP4K2) | fold selectivity MAP4K4 over GLK/MAP4K3 (GLK/MAP4K3) | IC50 (GLK/MAP4K3) | fold selectivity MAP4K4 over KHS/MAP4K5 (KHS/MAP4K5) | IC50 (KHS/MAP4K5) | fold selectivity MAP4K4 over ABL1 (ABL1) | IC50 (ABL1) | fold selectivity MAP4K4 over MLK3/MAP3K11 (MLK3/MAP3K11) | IC50 (MLK3/MAP3K11) | fold selectivity MAP4K4 over NUAK1 (NUAK1) | IC50 (NUAK1) | IC50 (MINK1/MAP4K6) | fold selectivity MAP4K4 over MLK1/MAP3K9 (MLK1/MAP3K9) | IC50 (MLK1/MAP3K9) | fold selectivity MAP4K4 over Aurora B (Aurora B; in favour of MAP4K4) | IC50 (Aurora B; read-out: pIC50 Aurora B (converted)) | SMILES
4 | ≤ 0.1 µM | 0.0316 µM | 0.316 µM | (16) fold | 0.501 µM | – | – | – | – | – | – | (1) fold | 0.0316 µM | (3) fold | 0.1 µM | 0.0631 µM | (8) fold | 0.126 µM | – | – | O=c1[nH]cnc2c1c(-c1cnn(C3COC3)c1)cn2-c1ccccc1 [Ex-26]
5 | ≤ 0.1 µM | 0.0158 µM | 0.02 µM | (31) fold | 0.501 µM | – | – | – | – | – | – | (5) fold | 0.0794 µM | (13) fold | 0.2 µM | 0.01 µM | (5) fold | 0.0794 µM | – | – | O=c1[nH]cnc2c1c(-c1cnn(CCO)c1)cn2-c1ccccc1 [Ex-27]
